Test results from the supplement of paper PMC10307832.

What was measured:
Test in all cases: relative viability (nuclei count vs DMSO), 5 days (fraction); higher = more cells survive
[1] = compound: CN[C@@H]1C[C@H]2O[C@@](C)([C@@H]1OC)n1c3ccccc3c3c4c(c5c6ccccc6n2c5c31)C(=O)NC4 [Staurosporine] + CC(C)C[C@H](NC(=O)[C@H](Cc1ccccc1)NC(=O)c1cnccn1)B(O)O [Bortezomib] (partner 0.002 µM)
Summary of the method: (§1)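 Lung cancer cell lines were pin-tool dosed in 1536-well plates on the day after seeding, with either a lone drug or a fixed anchor-drug dose plus five library-drug doses (not always all listed) in √10 steps. Nuclei were counted on 4× images after 5 days. Relative viability is the ratio of treated-well to vehicle-well nuclei counts, with each value a median of duplicate plates.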

[2] = compound: O=c1[nH]cc(F)c(=O)[nH]1 [5-Fluorouracil] + COc1cc2c(Oc3ccc(NC(=O)C4(C(=O)Nc5ccc(F)cc5)CC4)cc3F)ccnc2cc1OCCCN1CCOCC1 [Foretinib] (partner 0.25 µM)
Summary of the method: as §1

[3] = compound: O=c1[nH]cc(F)c(=O)[nH]1 [5-Fluorouracil] + CS(=O)(=O)CCNCc1ccc(-c2ccc3ncnc(Nc4ccc(OCc5cccc(F)c5)c(Cl)c4)c3c2)o1 [Lapatinib] (partner 2 µM)
Summary of the method: as §1

[4] = compound: O=c1[nH]cc(F)c(=O)[nH]1 [5-Fluorouracil] + C[C@@H](Oc1cc(-c2cnn(C3CCNCC3)c2)cnc1N)c1c(Cl)ccc(F)c1Cl [Crizotinib] (partner 1 µM)
Summary of the method: as §1

Cell Line	relative viability ([1]; first compound 0.005 µM)	relative viability ([1]; first compound 0.01581 µM)	relative viability ([1]; first compound 0.05 µM)	relative viability ([1]; first compound 0.1581 µM)	relative viability ([1]; first compound 0.5 µM)	relative viability ([2]; first compound 0.02 µM)	relative viability ([2]; first compound 0.2 µM)	relative viability ([2]; first compound 0.6325 µM)	relative viability ([2]; first compound 2 µM)	relative viability ([3]; first compound 0.02 µM)	relative viability ([3]; first compound 0.2 µM)	relative viability ([3]; first compound 0.6325 µM)	relative viability ([3]; first compound 2 µM)	relative viability ([4]; first compound 0.02 µM)	relative viability ([4]; first compound 0.2 µM)	relative viability ([4]; first compound 0.6325 µM)	relative viability ([4]; first compound 2 µM)
NCI-H2405	0.314	0.165	0.188	0.163	0.134	1	1.13	1.01	1.02	1.06	1.22	1.06	0.63	0.871	0.954	0.797	0.579
HCC-44	0.708	0.367	0.169	0.142	0.0976					1.05	0.974	0.609	0.311	0.848	0.768	0.578	0.324
HCC-78	0.483	0.388	0.256	0.404	0.332	0.548	0.527	0.459	0.325	0.768	1.2	0.265		0.331	0.311	0.254	
COR-L23	0.69	0.282	0.272	0.104	0.0851	0.982	0.886	0.522	0.289	1.03	0.921	0.48	0.253	0.789	0.556	0.478	0.148
NCI-H2009	0.278	0.147	0.165	0.0953	0.0887	1.31	1.27	1.12	0.669	0.941	0.919	0.764	0.812	1.12	0.989	0.765	0.646
NCI-H3122	1.04	0.355	0.947	0.821	0.362	0.956	0.721	0.363	0.218	0.994	0.903	0.338	0.246	0.252	0.274	0.232	0.215
NCI-H2228	0.782	0.421	0.419	0.227	0.118	0.981	0.808	0.625	0.343	1.13	1.06	0.687	0.505	0.441	0.483	0.457	0.343
NCI-H1944						0.834	0.702	0.314	0.184	0.843	0.908	0.474	0.268	0.993	0.92	0.392	0.193
NCI-H358						0.71	0.918	0.657	0.308	0.509	0.508	0.435	0.352	0.965	0.664	0.671	0.282
NCI-H1755	0.788	0.364	0.251	0.171	0.157	0.909	0.854	0.365	0.319	1.06	0.848	0.327	0.263	0.838	0.655	0.313	0.258
